Values quoted from earlier work in patent US8916150B2 (priority 2009, dated 2014).

What was measured:
[1] = system: botulinum toxin light chain (LC)
[2] = in vivo
LC of BoNT-A = LC of BoNT-A (Clostridium botulinum, UniProt P0DPI1)
Chain of LC of BoNT-A (P0DPI1 2-448 limits assumed): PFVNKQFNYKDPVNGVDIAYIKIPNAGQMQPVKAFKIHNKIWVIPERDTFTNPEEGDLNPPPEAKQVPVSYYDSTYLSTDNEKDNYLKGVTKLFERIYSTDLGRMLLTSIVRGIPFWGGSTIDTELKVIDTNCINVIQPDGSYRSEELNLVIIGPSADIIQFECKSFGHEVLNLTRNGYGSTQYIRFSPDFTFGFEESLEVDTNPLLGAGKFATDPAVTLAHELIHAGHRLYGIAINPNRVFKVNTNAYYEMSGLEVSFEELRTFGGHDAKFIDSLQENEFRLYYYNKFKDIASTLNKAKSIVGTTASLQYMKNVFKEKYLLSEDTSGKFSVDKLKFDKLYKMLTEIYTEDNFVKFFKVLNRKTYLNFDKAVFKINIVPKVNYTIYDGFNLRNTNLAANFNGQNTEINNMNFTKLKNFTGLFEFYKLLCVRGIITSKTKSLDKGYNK

## O=C(O)CN(CCN(CC(=O)O)CC(=O)O)CC(=O)O [EDTA, ethylenediaminetetraacetate]
[1]
  effect on LC enzymatic activity on removal of Zn2+: completely abolishes enzymatic activity

## CC(=O)[O-].CC(=O)[O-].[Zn+2] [zinc acetate]
[2]
  nausea and vomiting after single dose: induces nausea and vomiting

## [Cl-].[Cl-].[Zn+2] [zinc chloride]
LC of BoNT-A
  effect on autocatalytic fragmentation of LC: enhanced
